# Data published in patent publication US20170362609A1, “[…] NANOPARTICLES FOR CODELIVERY OF WATER-INSOLUBLE SMALL MOLECULES AND RNAi” (Massachusetts Institute of Technology, priority 2016, published 2017).
# Assays:
# [1] = system: BCL-2 siRNA; assay: siRNA binding with platinum species by MALDI-TOF-MS; conditions: 10-fold excess of platinum
# Procedure: The reaction mixture was placed in a 37° C. incubator and 10 μL of sample were removed at various time points to obtain MALDI-TOF-MS spectra (positive model).
# [2] = system: 5′-GMP; assay: 5′-GMP binding with platinum species by 1HNMR
# Procedure: The binding kinetics of 5′-GMP to each platinum species were determined by measuring the relative amounts of free and Pt-bound 5′-GMP at each time point, integrating the ratio of the ^1HNMR peaks at 8.5 ppm to 8.09 ppm.
# [3] = system: OVCAR4 cells; assay: MTT cytotoxicity; format: cell-based; conditions: platinum concentration
# [4] = system: A2780DDP cells; assay: MTT cytotoxicity; format: cell-based; conditions: platinum concentration
# [5] = system: MCF-7 cells; assay: MTT cytotoxicity; format: cell-based; conditions: platinum concentration, siRNA 100 nM
# Procedure: In vitro Cytotoxicity Measurements. MCF-7 cells were seeded in 96-well plates at a density of 1×10^4 cells/well. 100 μL of DMEM supplemented with 10% FBS were added to each well and the cells were incubated at 37° C. for 24 h. […] All experiments were conducted in triplicate.
# [6] = system: A2780 cells; assay: MTT cytotoxicity; format: cell-based; conditions: platinum concentration
# [7] = system: MCF-7 cells; assay: Intracellular platinum uptake; format: cell-based
# Procedure: FIG. 19A is a bar graph showing platinum uptake (μg Pt/cell) for various compositions. […] Experiments were performed in triplicate. […] IC50 values were derived from three independent experiments each with four technical replicates per condition.
# MCF-7 cells were seeded in 12-well plates at a density of 10^5 cells per well and incubated overnight in 1 mL of DMEM containing 10% FBS. […]
# [8] = system: MCF-7 cells; assay: Pt-DNA adducts in cells; format: cell-based; conditions: 24 h after treatment
# Procedure: FIG. 19B is a bar graph showing the total number of Pt-DNA adducts (pg Pt/μg DNA) as assessed after 24 h of incubation with each treatment group, as defined in the description of FIG. 19A. DNA was isolated after cellular lysis and the content of DNA-bound Pt was determined by ICP-MS. Experiments were performed in triplicate. […] IC50 values were derived from three independent experiments each with four technical replicates per condition. […] In all cases, significance is defined as *p<0.05, **p<0.01, and ***p<0.001.
# Atomic absorption spectroscopy (generation 8.0, Perkin Elmer) was used to study the kinetics of siRNA platination and to determine the platinum content in all micellar formulations. Inductively coupled plasma mass spectrometry (ICP-MS, Xseries II, Thermo scientific, USA) was used for quantitative determination of trace levels of platinum in cancer cells and to quantify Pt-DNA adduct formation. Sizes and distributions of micelles were determined by dynamic light scattering (DLS) with a vertically polarized He—Ne laser (DAWN EOS, Wyatt Technology, USA). The size and morphologies of the micelles very visualized using a JEOL JEM-1011 electron microscope. Particle size and zeta potential measurements were conducted on a Malvern Zetasizer Nano ZS90. Micelles were prepared by directly dissolving various modified triblock copolymers in water at 0.5 mg/mL.
# [9] = system: BCL-2 siRNA; assay: Double-stranded siRNA binding with platinum species by AAS; conditions: by 3 h of incubation
# Procedure: A double-stranded RNA (sense: […]-ATT; antisense: […]-[…]) was mixed with OxaPt(II) at a molar ratio of 1:10 in RNAase free water (RNA final concentration: 5 μM; Pt final concentration at 50 μM; total volume of 100 μL). […] The RNA was then isolated using a centrifugation separation device (molecular cut-off 3000 Da, spun at 10,000 rpm; Nanosep®3k, Pall Corporation, USA). Five wash cycles with RNAase free water (5×100 μL) then ensued. An aliquot of 2 μL from each sample was obtained for optical density (OD) measurements in order to quantify the concentration of RNA in the original sample, using a NanoDrop reader. The remainder of each sample was diluted in 3% HNO3 for Pt content measurement via AAS. The experiments were performed in triplicate and data are presented such that the concentration of Pt-RNA adducts at each time point are expressed as “μmol Pt/μmol RNA”. Analogous methods were employed to obtain similar values for the numbers of Pt-RNA adducts formed by the reaction of siRNA with OxaPt(IV), CisPt(II) or CisPt(IV) at similar time points.
# MALDI/TOF MS was used to ascertain the kinetics of platinum-RNA adduct formation using BCL-2 siRNA that was incubated with a 10-fold excess of various platinum(II) or platinum(IV) species. […]
SMILES,time at which Pt-siRNA adducts could be detected [1],formation of Pt(NH3)2(5′-GMP)2 adducts ([2]; data not shown),IC50 [3],IC50 [4],IC50 [5],IC50 [6],Platinum uptake 1 h ([7]; 1 h),Platinum uptake 4 h ([7]; 4 h),Pt-DNA adducts After 24 h [8],"DACHPt(5′-GMP)2 adducts, share of the 5′-GMP pool ([2]; 30 m incubation, 10 mM 5′-GMP, 5 mM Pt, 37° C.)","DACHPt(5′-GMP)2 adducts, share of the total 5′-GMP pool ([2]; over the first 6 h, 10 mM 5′-GMP, 5 mM Pt, 37° C.)",siRNA transcripts platinated [9]
"N.N.[Cl][Pt][Cl] [CisPt(II), cisplatin]",≤ 30 m,Similarly rapid formation and time dependent increases,–,–,–,–,–,–,–,–,–,–
"O=C1[O][Pt]2([NH][C@@H]3CCCC[C@H]3[NH]2)[O]C1=O [OxaPt(II), Oxaliplatin]",1 h,–,15.5 ± 0.5 µM,18.8 ± 0.99 µM,23.1 ± 0.25 µM,2.9 ± 0.28 µM,369 ± 24 pg Pt/cell (×10^−4),535 ± 16 pg Pt/cell (×10^−4),41.10 ± 9.84 ng Pt/μg DNA,approximately 10%,> 40%,> 50%
